ChEMBL document CHEMBL1143859, “Identification and synthesis of a unique thiocarbazate cathepsin L inhibitor” (Bioorg Med Chem Lett, 2008)

target: Procathepsin L (Homo sapiens, UniProt P07711); assay: Inhibition of cathepsin L
Sequence (P07711 whole entry): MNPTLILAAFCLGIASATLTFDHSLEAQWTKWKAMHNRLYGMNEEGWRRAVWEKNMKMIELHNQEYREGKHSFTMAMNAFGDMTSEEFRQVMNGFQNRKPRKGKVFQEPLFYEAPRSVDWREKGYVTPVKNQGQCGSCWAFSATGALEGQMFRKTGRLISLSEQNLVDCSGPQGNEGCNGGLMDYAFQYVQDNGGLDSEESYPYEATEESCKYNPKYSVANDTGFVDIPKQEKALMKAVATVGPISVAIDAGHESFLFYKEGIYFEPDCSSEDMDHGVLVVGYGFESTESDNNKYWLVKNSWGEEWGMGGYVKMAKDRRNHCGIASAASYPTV

Q: For `Cc1cccc(NC(=O)CSc2nnc(C(N)Cc3c[nH]c4ccccc34)o2)c1C` (single isomer, unassigned), which IC50 is on record?
A: Its IC50 is 300 nM.

Q: Which IC50 does the source give for `CCc1ccccc1NC(=O)CSc1nnc(C(N)Cc2c[nH]c3ccccc23)o1` (single isomer, unassigned) here?
A: Its IC50 is 130 nM.

Q: For `Cc1ccc(NC(=O)CSc2nnc(C(N)Cc3c[nH]c4ccccc34)o2)c(C)c1` (single isomer, unassigned), which IC50 is on record?
A: Its IC50 is 160 nM.

Q: For `CN(C)C(=O)CSc1nnc([C@@H](N)Cc2c[nH]c3ccccc23)o1`, which IC50 is on record?
A: Its IC50 is 170 nM.

Q: With `CCc1ccccc1NC(=O)CSC(=O)NNC(=O)[C@@H](N)Cc1c[nH]c2ccccc12` as the compound, how does the IC50 read?
A: The IC50 was 133 nM.

Q: `CCN(CC)C(=O)CSc1nnc([C@@H](N)Cc2c[nH]c3ccccc23)o1` was tested. Which IC50 did it give?
A: The IC50 was 510 nM.
